The source made the active and inactive calls.
Legend:
Assay type in all cases: functional
Albumin = Albumin (Bos taurus, UniProt P02769); test: Counterscreen for inhibitors of T-cell receptor (TCR)-CD3 interaction: Fluorescence-based biochemical high throughput dose response assay to identify inhibitors of T-cell receptor (TCR)-CD3 interaction using a TAMRA-labeled BSA probe.
[1] = A Cell Based Secondary Assay to Explore Cytotoxicity in THP-1 Cells of Compounds that Modulate Mycobacterium tuberculosis in Media Containing Glycerol versus Media without Glycerol (2).
[2] = Vero cell cytotoxicity, cytotoxicity control for M. tuberculosis inhibitor project, purified and synthesized samples, set 3 (AID 504684)
Beta-galactosidase = Beta-galactosidase (Escherichia coli, UniProt Q8VNN2); test: Dose response counterscreen for EBI2 assay utilizing the enzyme, b-galactosidase.
Hexokinase = biological target: T1, Hexokinase (Trypanosoma brucei, UniProt Q38C41); test: Confirmation assay for inhibitors of Trypanosoma brucei hexokinase 1-Analogue-first series. [Related pubchem assays (depositor defined):AID1430, AID1632, AID2516, AID2560, AID2579, AID2600, AID449725, AID492951]
T1 sequence (Q38C41 whole entry): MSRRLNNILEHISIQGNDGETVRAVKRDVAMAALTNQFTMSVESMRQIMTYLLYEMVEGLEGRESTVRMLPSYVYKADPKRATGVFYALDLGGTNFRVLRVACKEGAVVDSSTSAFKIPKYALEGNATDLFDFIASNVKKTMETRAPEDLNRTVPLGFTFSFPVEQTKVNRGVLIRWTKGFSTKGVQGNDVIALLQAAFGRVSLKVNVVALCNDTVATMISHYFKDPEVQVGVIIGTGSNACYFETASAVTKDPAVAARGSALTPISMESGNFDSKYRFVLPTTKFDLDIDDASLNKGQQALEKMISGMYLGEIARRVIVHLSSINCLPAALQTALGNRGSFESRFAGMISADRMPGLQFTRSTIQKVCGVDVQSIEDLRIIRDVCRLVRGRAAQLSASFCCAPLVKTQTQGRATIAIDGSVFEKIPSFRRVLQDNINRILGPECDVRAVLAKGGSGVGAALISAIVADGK

[3] = biological target: Glucose-6-phosphate 1-dehydrogenase (Homo sapiens, UniProt P11413); test: inhibition of Homo sapiens G6PD, dose series – biochemical, fluorescence, selectivity assay for P. falciparum G6PD inhibitor project, dose response (AID 504792)
[4] = biological target: SWI/SNF-related matrix-associated actin-dependent regulator of chromatin subfamily A member 2 (Homo sapiens, UniProt P51531); test: Luminescence-based cell-based high throughput dose response assay to identify activators of the function of SWI/SNF related, matrix associated, actin dependent regulator of chromatin, subfamily a, member 2 (SMARCA2, BRM).
[5] = Counterscreen for activators of the function of SWI/SNF related, matrix associated, actin dependent regulator of chromatin, subfamily a, member 2 (SMARCA2, BRM): Luminescence-based cell-based high throughput dose response assay to identify non-selective compounds using the VP16 reporter assay.
[6] = Counterscreen for […] of the human trace amine associated receptor 1 (TAAR1): Fluorescence-based cell-based high throughput dose response assay to identify nonselective Ga16 agonists.
[7] = biological target: T2, Trace amine-associated receptor 1 (Homo sapiens, UniProt Q96RJ0); test: Fluorescence-based cell-based high throughput dose response assay to identify antagonists of the human trace amine associated receptor 1 (TAAR1).
T2 sequence (Q96RJ0 whole entry): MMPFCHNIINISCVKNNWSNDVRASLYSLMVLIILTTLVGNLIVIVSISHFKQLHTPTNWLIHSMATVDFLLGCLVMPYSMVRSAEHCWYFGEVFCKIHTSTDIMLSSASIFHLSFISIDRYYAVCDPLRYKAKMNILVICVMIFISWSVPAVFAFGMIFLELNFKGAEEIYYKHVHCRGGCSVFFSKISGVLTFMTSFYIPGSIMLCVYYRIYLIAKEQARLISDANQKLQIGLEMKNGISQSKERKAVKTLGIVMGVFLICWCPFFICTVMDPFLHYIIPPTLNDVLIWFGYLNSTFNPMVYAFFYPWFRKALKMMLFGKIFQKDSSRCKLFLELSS

[8] = Counterscreen for antagonists of the human trace amine associated receptor 1 (hTAAR1): Fluorescence-based cell-based high throughput dose response assay to identify nonselective Ga16 antagonists.
[9] = biological target: T2, Trace amine-associated receptor 1; test: Counterscreen for antagonists of the human trace amine associated receptor 1 (hTAAR1): Fluorescence-based cell-based high throughput dose response assay to identify TAAR1 Agonists.

Albumin, sequence (P02769 whole entry): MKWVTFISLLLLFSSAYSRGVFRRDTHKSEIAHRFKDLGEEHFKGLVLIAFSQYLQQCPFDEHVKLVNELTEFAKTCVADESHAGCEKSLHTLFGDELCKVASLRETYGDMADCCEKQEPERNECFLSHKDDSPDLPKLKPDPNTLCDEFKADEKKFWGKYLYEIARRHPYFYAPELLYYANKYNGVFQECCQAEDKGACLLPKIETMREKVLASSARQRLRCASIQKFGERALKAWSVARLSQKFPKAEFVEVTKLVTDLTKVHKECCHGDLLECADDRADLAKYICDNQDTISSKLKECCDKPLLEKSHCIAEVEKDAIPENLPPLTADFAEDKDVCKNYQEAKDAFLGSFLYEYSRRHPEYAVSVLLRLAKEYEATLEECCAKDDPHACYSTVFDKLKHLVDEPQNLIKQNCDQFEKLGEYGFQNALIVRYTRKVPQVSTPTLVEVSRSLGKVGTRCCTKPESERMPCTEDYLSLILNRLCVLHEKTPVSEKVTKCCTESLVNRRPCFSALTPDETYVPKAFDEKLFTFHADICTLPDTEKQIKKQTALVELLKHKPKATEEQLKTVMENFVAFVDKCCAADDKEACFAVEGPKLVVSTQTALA
Beta-galactosidase, sequence (Q8VNN2 whole entry): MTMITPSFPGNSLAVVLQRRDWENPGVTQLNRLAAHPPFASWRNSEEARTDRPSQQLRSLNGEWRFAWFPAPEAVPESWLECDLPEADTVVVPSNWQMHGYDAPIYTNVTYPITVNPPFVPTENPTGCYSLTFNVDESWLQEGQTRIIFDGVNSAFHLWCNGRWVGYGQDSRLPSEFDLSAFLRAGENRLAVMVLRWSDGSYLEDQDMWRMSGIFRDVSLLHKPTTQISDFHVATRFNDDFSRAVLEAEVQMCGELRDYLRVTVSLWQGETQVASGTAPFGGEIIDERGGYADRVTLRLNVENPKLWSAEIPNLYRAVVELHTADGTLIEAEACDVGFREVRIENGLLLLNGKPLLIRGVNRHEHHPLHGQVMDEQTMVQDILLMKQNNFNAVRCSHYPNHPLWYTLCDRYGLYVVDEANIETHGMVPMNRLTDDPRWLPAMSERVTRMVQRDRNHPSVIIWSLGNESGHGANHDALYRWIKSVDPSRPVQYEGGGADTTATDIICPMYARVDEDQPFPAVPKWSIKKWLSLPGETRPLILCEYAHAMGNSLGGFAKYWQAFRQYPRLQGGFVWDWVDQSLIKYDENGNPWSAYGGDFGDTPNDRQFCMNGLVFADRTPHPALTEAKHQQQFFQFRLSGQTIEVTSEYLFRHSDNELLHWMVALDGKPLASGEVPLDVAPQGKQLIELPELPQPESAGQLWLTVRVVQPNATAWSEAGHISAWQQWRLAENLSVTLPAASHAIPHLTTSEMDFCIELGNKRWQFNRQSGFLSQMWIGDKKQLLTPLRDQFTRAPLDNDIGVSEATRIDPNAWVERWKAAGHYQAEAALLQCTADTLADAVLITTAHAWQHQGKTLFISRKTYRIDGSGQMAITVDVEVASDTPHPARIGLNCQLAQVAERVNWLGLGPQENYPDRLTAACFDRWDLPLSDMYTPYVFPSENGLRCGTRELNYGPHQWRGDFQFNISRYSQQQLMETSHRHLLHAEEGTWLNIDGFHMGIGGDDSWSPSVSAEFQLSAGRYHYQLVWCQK
SWI/SNF-related matrix-associated actin-dependent regulator of chromatin subfamily A member 2, sequence (P51531 whole entry): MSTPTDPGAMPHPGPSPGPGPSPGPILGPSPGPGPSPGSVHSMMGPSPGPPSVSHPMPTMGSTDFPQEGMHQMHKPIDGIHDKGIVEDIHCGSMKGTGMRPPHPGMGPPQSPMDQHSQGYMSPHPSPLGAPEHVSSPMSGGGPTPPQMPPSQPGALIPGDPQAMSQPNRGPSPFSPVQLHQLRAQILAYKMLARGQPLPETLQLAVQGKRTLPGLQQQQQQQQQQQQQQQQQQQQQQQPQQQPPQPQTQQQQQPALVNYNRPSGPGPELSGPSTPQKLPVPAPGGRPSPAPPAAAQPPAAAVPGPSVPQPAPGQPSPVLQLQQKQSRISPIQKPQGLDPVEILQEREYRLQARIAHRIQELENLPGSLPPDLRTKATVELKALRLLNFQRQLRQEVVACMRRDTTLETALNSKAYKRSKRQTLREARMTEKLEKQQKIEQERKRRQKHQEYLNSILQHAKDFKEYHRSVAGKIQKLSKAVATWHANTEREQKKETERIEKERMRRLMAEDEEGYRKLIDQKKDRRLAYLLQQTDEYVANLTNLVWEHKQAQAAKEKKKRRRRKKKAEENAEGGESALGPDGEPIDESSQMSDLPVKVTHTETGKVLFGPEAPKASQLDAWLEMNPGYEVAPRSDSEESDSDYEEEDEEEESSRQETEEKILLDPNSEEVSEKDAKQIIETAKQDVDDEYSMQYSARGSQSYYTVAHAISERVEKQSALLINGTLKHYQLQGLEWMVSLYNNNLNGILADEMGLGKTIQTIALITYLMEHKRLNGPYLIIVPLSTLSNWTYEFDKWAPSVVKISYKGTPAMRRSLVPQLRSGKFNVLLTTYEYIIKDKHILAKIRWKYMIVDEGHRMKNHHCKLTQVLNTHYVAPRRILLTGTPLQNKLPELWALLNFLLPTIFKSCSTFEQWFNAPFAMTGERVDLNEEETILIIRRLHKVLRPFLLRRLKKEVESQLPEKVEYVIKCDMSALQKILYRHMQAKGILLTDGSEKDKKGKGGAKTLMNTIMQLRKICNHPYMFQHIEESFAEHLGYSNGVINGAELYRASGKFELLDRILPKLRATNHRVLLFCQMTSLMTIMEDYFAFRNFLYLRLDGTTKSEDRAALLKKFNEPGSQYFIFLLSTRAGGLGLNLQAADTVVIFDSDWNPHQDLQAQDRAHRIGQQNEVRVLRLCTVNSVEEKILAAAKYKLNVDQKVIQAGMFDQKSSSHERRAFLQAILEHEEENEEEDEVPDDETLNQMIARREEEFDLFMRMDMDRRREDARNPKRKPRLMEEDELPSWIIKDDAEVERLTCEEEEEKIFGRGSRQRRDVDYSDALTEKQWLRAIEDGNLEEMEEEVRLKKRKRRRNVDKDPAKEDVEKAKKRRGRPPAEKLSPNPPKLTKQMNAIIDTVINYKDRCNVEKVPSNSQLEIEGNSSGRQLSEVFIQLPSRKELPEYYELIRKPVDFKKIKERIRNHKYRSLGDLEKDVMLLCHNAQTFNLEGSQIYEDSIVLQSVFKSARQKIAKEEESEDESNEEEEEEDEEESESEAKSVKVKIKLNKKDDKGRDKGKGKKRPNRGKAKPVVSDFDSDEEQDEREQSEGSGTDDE
Glucose-6-phosphate 1-dehydrogenase, sequence (P11413 whole entry): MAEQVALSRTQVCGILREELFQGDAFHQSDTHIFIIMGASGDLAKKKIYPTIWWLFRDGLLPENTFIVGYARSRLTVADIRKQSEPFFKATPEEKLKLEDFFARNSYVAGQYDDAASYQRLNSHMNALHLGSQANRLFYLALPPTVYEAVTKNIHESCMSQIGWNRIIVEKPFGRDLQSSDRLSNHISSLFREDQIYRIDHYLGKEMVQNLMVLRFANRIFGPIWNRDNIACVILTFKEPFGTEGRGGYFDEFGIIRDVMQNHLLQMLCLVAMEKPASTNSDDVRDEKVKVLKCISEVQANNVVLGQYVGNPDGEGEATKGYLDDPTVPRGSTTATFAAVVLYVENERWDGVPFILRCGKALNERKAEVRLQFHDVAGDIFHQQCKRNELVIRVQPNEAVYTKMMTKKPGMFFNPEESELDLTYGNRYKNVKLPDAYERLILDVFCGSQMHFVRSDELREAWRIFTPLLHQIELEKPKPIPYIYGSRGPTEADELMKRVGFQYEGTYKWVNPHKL

NC(=O)CCC1NC(=S)N(Cc2ccccc2)C1=O (centres undefined)
IC50 (Albumin): > 94.1 µM (inactive)

O=C(/C=C/c1ccccc1)N1CCN(CCN2C(=O)c3cccc4cccc(c34)C2=O)CC1
CC50 [1]: 60.2 µM (active)
CC50 [2]: > 100 µM (active)
IC50 (Beta-galactosidase): > 80 µM (inactive)

Cn1sc2ccccc2c1=O
IC50 (Hexokinase): > 25 µM (inactive)
IC50 [3]: 37.3 µM (inactive)
EC50 [4]: > 91.2 µM (inactive)
EC50 [5]: > 91.2 µM (inactive)

O=C(NN=Cc1sc(=O)[nH]c1-[n+]1ccc2ccccc2c1)c1ccccc1[O-]
IC50 (Albumin): > 94.1 µM (inactive)

COc1ccc2oc(C(=O)OCC(=O)NCc3ccccc3OC)c(C)c2c1
EC50 [6]: > 29.9 µM (inactive)
IC50 [7]: 6.65 µM (active)
IC50 [8]: > 29.9 µM (inactive)
EC50 [9]: 7.16 µM (active)

CCOC(=O)C1=C(Nc2ccc(Cl)cc2)S/C(=C\c2ccccn2)C1=O
IC50 (Beta-galactosidase): > 80 µM (inactive)
